# From US20140243302A1, “BRIDGED BICYCLIC COMPOUNDS FOR THE TREATMENT OF BACTERIAL INFECTIONS” (priority 2011, published 2014)
# System: Staphylococcus aureus Smith
# Assay: MIC assay, modified agar dilution (CLSI), S. aureus Smith
# Format: cell-based
# Details: Staphylococcus aureus, agar dilution, 35° C., 16-20 hr; lowest concentration that completely inhibited growth; read-out: S_aureus_Smith_WT_MIC
# Summary of the method: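 Strains were spotted at about 1×10^4 CFU onto compound-containing Mueller Hinton agar (two-fold series, 128-0.001 μg/mL), horse blood 5% added for pneumococcus and enterococcus. MIC read after 16-20 hr at 35 °C, following a modified CLSI agar dilution method.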
row,SMILES,MIC
1,"COc1ccc2ncc(F)c(CCC34CCC(NCc5cc6cccnc6n(C)c5=O)(CC3)CO4)c2n1.Cl [Example 183, 3-((1-(2-(3-Fluoro-6-methoxy-1,5-naphthyridin-4-yl)ethyl)-2-oxabicyclo[2.2.2]octan-4-ylamino)methyl)-1-methyl-1,8-naphthyridin-2(1H)-one Hydrochloride]",1 µg/mL
2,"CCc1c(CNC23CCC(CCc4c(F)cnc5ccc(OC)nc45)(CC2)OC3)nc2c(c1C)OCC(=O)N2.Cl [Example 198, N-((7-Ethyl-8-methyl-3-oxo-3,4-dihydro-2H-pyrido[3,2-b][1,4]oxazin-6-yl)methyl)-1-(2-(3-fluoro-6-methoxy-1,5-naphthyridin-4-yl)ethyl)-2-oxabicyclo[2.2.2]octan-4-aminium chloride]",2 µg/mL
3,"CN(C)c1nc2c(CCC34CCC(NCc5ccc6c(n5)NC(=O)CO6)(CC3)CO4)ccnc2cc1F [Example 154, 6-((1-(2-(6-(Dimethylamino)-7-fluoro-1,5-naphthyridin-4-yl)ethyl)-2-oxabicyclo[2.2.2]octan-4-ylamino)methyl)-2H-pyrido[3,2-b][1,4]oxazin-3(4H)-one]",1 µg/mL
4,"COc1ccc2ncc(F)c(C(CC34CCC(NCc5ccc6c(n5)NC(=O)CO6)(CC3)CO4)C(=O)[O-])c2n1.[Na+] (centres unmarked) [Example 195, Sodium 2-(3-fluoro-6-methoxy-1,5-naphthyridin-4-yl)-3-(4-(((3-oxo-3,4-dihydro-2H-pyrido[3,2-b][1,4]oxazin-6-yl)methyl)amino)-2-oxabicyclo[2.2.2]octan-1-yl)propanoate]",1 µg/mL
5,"COc1ccc2ncc(F)c(CCC34CCC(NCc5nc6cccnc6n(C)c5=O)(CC3)CO4)c2n1.Cl [Example 108, 2-((1-(2-(3-Fluoro-6-methoxy-1,5-naphthyridin-4-yl)ethyl)-2-oxabicyclo[2.2.2]octan-4-ylamino)methyl)-4-methylpyrido[3,2-b]pyrazin-3(4H)-one Hydrochloride]",> 8 µg/mL
6,"COc1ccc2ncc(F)c(CCC34CCC(NCc5ccc(N6CCOCC6)nc5)(CC3)CO4)c2n1 [Example 64, 1-(2-(3-Fluoro-6-methoxy-1,5-naphthyridin-4-yl)ethyl)-N-((6-morpholinopyridin-3-yl)methyl)-2-oxabicyclo[2.2.2]octan-4-amine]",4 µg/mL
7,"COc1ccc2ncc(F)c(CC(OCCO)C34CCC(NCc5ccc6c(n5)NC(=O)CO6)(CC3)CO4)c2n1 (centres unmarked) [Example 167, 6-[({1-[2-(3-Fluoro-6-methoxy-1,5-naphthyridin-4-yl)-1-(2-hydroxyethoxy)ethyl]-2-oxabicyclo[2.2.2]oct-4-yl}amino)methyl]-2H-pyrido[3,2-b][1,4]oxazin-3(4H)-one]",2 µg/mL
8,"Cc1ccc2ccc(OCCC34CCC(NCc5ccc6c(n5)NC(=O)CO6)(CC3)CO4)nc2n1 [Example 113, 6-((1-(2-(7-Methyl-1,8-naphthyridin-2-yloxy)ethyl)-2-oxabicyclo[2.2.2]octan-4-ylamino)methyl)-2H-pyrido[3,2-b][1,4]oxazin-3(4H)-one]",16 µg/mL
9,"NCCCCOc1ccc2ncc(F)c(CCC34CCC(NCc5ccc6c(n5)NC(=O)CO6)(CC3)CO4)c2n1 [Example 39, 6-((1-(2-(6-(4-Aminobutoxy)-3-fluoro-1,5-naphthyridin-4-yl)ethyl)-2-oxabicyclo[2.2.2]octan-4-ylamino)methyl)-2H-pyrido[3,2-b][1,4]oxazin-3(4H)-one]",0.5 µg/mL
10,"O=C1COc2ccc(CNC34CCC(CC(O)c5c(F)cnc6ccc(OCCCO)nc56)(CC3)OC4)nc2N1 (centres unmarked) [Example 210, 1-(2-(3-Fluoro-6-(3-hydroxypropoxy)-1,5-naphthyridin-4-yl)-2-hydroxyethyl)-N-((3-oxo-3,4-dihydro-2H-pyrido[3,2-b][1,4]oxazin-6-yl)methyl)-2-oxabicyclo[2.2.2]octan-4-aminium chloride]",0.25 µg/mL
11,"COc1ccc2ncc(F)c(CCC34CCC(NCc5cc6[nH]c(=O)cnc6cn5)(CC3)CO4)c2n1 [Example 179, 7-[({1-[2-(3-Fluoro-6-methoxy-1,5-naphthyridin-4-yl)ethyl]-2-oxabicyclo[2.2.2]oct-4-yl}amino)methyl]pyrido[3,4-b]pyrazin-2(1H)-one]",0.5 µg/mL
12,"O=C1COc2ccc(CNC34CCC(CCN5C(=O)COc6ccc(Br)cc65)(CC3)OC4)nc2N1 [Example 203, 1-(2-(6-Bromo-3-oxo-2H-benzo[b][1,4]oxazin-4(3H)-yl)ethyl)-N-((3-oxo-3,4-dihydro-2H-pyrido[3,2-b][1,4]oxazin-6-yl)methyl)-2-oxabicyclo[2.2.2]octan-4-aminium chloride]",0.25 µg/mL
13,"COc1ccc2ncc(F)c(CCC34CCC(NCc5ccc(OC(F)F)c(OC)c5)(CC3)CO4)c2n1 [Example 95, N-(4-(Difluoromethoxy)-3-methoxybenzyl)-1-(2-(3-fluoro-6-methoxy-1,5-naphthyridin-4-yl)ethyl)-2-oxabicyclo[2.2.2]octan-4-amine]",0.5 µg/mL

# Other lines, results leading:
row,MIC,SMILES
1,0.016 µg/mL,"COc1ccc2ncc(F)c(CCC34CCC(NC(=O)c5ccc(C)c(F)c5)(CC3)CO4)c2n1 [Example 68, 3-Fluoro-N-(1-(2-(3-fluoro-6-methoxy-1,5-naphthyridin-4-yl)ethyl)-2-oxabicyclo[2.2.2]octan-4-yl)-4-methylbenzamide]"
2,0.031 µg/mL,"COc1ccc2ncc(Cl)c(CC(O)C34CCC(NCc5ccc6c(n5)NC(=O)CO6)(CC3)CC4)c2n1.Cl (single isomer, unassigned) [Example 14a, 6-((4-(2-(3-Chloro-6-methoxy-1,5-naphthyridin-4-yl)-1-hydroxyethyl)bicyclo[2.2.2]octan-1-ylamino)methyl)-2H-pyrido[3,2-b][1,4]oxazin-3(4H)-one Hydrochloride]"
3,0.063 µg/mL,"COC(=O)C1CC1COc1ccc2ncc(F)c(CCC34CCC(NCc5ccc6c(n5)NC(=O)CO6)(CC3)CO4)c2n1 (single isomer, unassigned; enantiomer a) [Example 227, Methyl 247-Fluoro-8-(2-(4-((3-oxo-3,4-dihydro-2H-pyrido[3,2-b][1,4]oxazin-6-yl)methylamino)-2-oxabicyclo[2.2.2]octan-1-yl)ethyl)-1,5-naphthyridin-2-yloxy)methyl)cyclopropanecarboxylate (Enantiomer A)]"
4,0.125 µg/mL,"COc1ccc2ncc(Cl)c(CCC34CCC(NCc5ccc6cccnc6n5)(CC3)CC4)c2n1 [Example 58, N-((1,8-Naphthyridin-2-yl)methyl)-4-(2-(3-chloro-6-methoxy-1,5-naphthyridin-4-yl)ethyl)bicyclo[2.2.2]octan-1-amine]"
5,0.031 µg/mL,"COc1ccc2ncc(F)c(CCC34CCC(NCc5ncc6c(n5)NC(=O)CO6)(CC3)CO4)c2n1 [Example 142, 2-((1-(2-(3-Fluoro-6-methoxy-1,5-naphthyridin-4-yl)ethyl)-2-oxabicyclo[2.2.2]octan-4-ylamino)methyl)-6H-pyrimido[5,4-b][1,4]oxazin-7(8H)-one]"
6,0.031 µg/mL,"COc1ccc2ncc(F)c(CCC34CCC(NCc5cc6c(cn5)OCC(=O)N6)(CC3)CO4)c2n1 [Example 96, 7-(((1-(2-(3-Fluoro-6-methoxy-1,5-naphthyridin-4-yl)ethyl)-2-oxabicyclo[2.2.2]octan-4-yl)amino)methyl)-1H-pyrido[3,4-b][1,4]oxazin-2(3H)-one]"
7,0.25 µg/mL,"C=Cc1c(CNC23CCC(CCc4c(F)cnc5ccc(OC)nc45)(CC2)OC3)nc2c(c1C)OCC(=O)N2.Cl [Example 199, 1-(2-(3-Fluoro-6-methoxy-1,5-naphthyridin-4-yl)ethyl)-N-((8-methyl-3-oxo-7-vinyl-3,4-dihydro-2H-pyrido[3,2-b][1,4]oxazin-6-yl)methyl)-2-oxabicyclo[2.2.2]octan-4-aminium chloride]"
8,0.063 µg/mL,"COc1ccc2ncc(F)c(CCC34CCC(NCc5ccc6cc[nH]c6n5)(CC3)CO4)c2n1 [Example 80, N-((1H-Pyrrolo[2,3-b]pyridin-6-yl)methyl)-1-(2-(3-fluoro-6-methoxy-1,5-naphthyridin-4-yl)ethyl)-2-oxabicyclo[2.2.2]octan-4-amine]"
9,0.063 µg/mL,"COc1cc2c(CCC34CCC(NCc5ccc6c(n5)NC(=O)CO6)(CC3)CO4)c(F)cnc2cc1F [Example 141, 6-[({1-[2-(3,7-Difluoro-6-methoxyquinolin-4-yl)ethyl]-2-oxabicyclo[2.2.2]oct-4-yl}amino)methyl]-2H-pyrido[3,2-b][1,4]oxazin-3(4H)-one]"

# Same assay, conditions: agar dilution, 35° C., 16-20 hr; lowest concentration that completely inhibited growth
row,SMILES,S_aureus_Smith_WT_MIC
1,"O=C1COc2ccc(CNC34CCC(C(O)Cn5c(=O)ccc6ncc(F)cc65)(CC3)OC4)nc2N1 (single isomer, unassigned) [Example 55a, 6-((1-(2-(7-Fluoro-2-oxo-1,5-naphthyridin-1(2H)-yl)-1-hydroxyethyl)-2-oxabicyclo[2.2.2]octan-4-ylamino)methyl)-2H-pyrido[3,2-b][1,4]oxazin-3(4H)-one]",1.00 µg/mL

# Same assay, conditions: agar dilution, 35° C., 16-20 hr; lowest concentration that completely inhibited growth; Hydrochloride
row,SMILES,S_aureus_Smith_WT_MIC
1,"COc1ccc2ncc(F)c(CCC34CCC(NCc5ccc6c(n5)NC(=O)C(C)O6)(CC3)CO4)c2n1.Cl (single isomer, unassigned) [Example 100a, 6-((1-(2-(3-Fluoro-6-methoxy-1,5-naphthyridin-4-yl)ethyl)-2-oxabicyclo[2.2.2]octan-4-ylamino)methyl)-2-methyl-2H-pyrido[3,2-b][1,4]oxazin-3(4H)-one Hydrochloride]",0.250 µg/mL
2,"COc1ccc2ncc(F)c(CCC34CCC(NCc5ccc6c(n5)NC(=O)C(C)O6)(CC3)CO4)c2n1.Cl (single isomer, unassigned) [Example 100b, 6-((1-(2-(3-Fluoro-6-methoxy-1,5-naphthyridin-4-yl)ethyl)-2-oxabicyclo[2.2.2]octan-4-ylamino)methyl)-2-methyl-2H-pyrido[3,2-b][1,4]oxazin-3(4H)-one Hydrochloride]",0.0630 µg/mL
3,"COc1ccc2ncc(=O)n(CC(O)C34CCC(NCc5ccc6c(n5)NC(=O)CO6)(CC3)CO4)c2n1.Cl (single isomer, unassigned) [Example 51a, 6-(((1-(1-Hydroxy-2-(6-methoxy-3-oxopyrido[2,3-b]pyrazin-4(3H)-yl)ethyl)-2-oxabicyclo[2.2.2]octan-4-yl)amino)methyl)-2H-pyrido[3,2-b][1,4]oxazin-3(4H)-one Hydrochloride]",0.0310 µg/mL
